Test results published in the NIST ThermoML archive (doi:10.1021/acs.jced.6b01071).
Numbers after ± are expanded uncertainties.

Tests used:
[1] = Liquid; for mass density: 298.15 K, 101.33 kPa, Vibrating tube method; for vapor or sublimation pressure: Ebulliometric method (Recirculating still)
[2] = refractive index (Na D-line) (dimensionless); conditions: 298.15 K; 101.33 kPa; Liquid; Standard Abbe refractometry
[3] = Boiling temperature at pressure P; conditions: 101.3 kPa; Liquid; Ebulliometric method (Recirculating still)

Row | mass density [1] [kg/m3] | vapor or sublimation pressure ([1]; 384.76 K) [kPa] | vapor or sublimation pressure ([1]; 400.65 K) [kPa] | vapor or sublimation pressure ([1]; 411.56 K) [kPa] | refractive index [2] | Boiling temperature at pressure P [3] [°C] | vapor or sublimation pressure ([1]; 309.68 K) [kPa] | vapor or sublimation pressure ([1]; 320.76 K) [kPa] | vapor or sublimation pressure ([1]; 328.55 K) [kPa] | vapor or sublimation pressure ([1]; 381.15 K) [kPa] | vapor or sublimation pressure ([1]; 381.41 K) [kPa] | vapor or sublimation pressure ([1]; 395.9 K) [kPa] | vapor or sublimation pressure ([1]; 396.04 K) [kPa] | vapor or sublimation pressure ([1]; 406.39 K) [kPa] | vapor or sublimation pressure ([1]; 406.59 K) [kPa] | Structure (SMILES)
1 | 943.89 ± 5 | 30 ± 1 | 50 ± 1 | 70 ± 1 | 1.4277 ± 0.01 | 153.50 ± 0.2 |  |  |  |  |  |  |  |  |  | CN(C)C=O [dimethylformamide]
2 | 786.59 ± 5 |  |  |  | 1.3264 ± 0.01 | 64.48 ± 0.2 | 30 ± 1 | 50 ± 1 | 70 ± 1 |  |  |  |  |  |  | CO [methanol]
3 | 961.52 ± 5 |  |  |  | 1.3986 ± 0.01 | 145.57 ± 0.2 |  |  |  | 30 ± 1 | 30 ± 1 | 50 ± 1 | 50 ± 1 | 70 ± 1 | 70 ± 1 | COCC(C)OC(C)=O (stereo unspecified) [1-methoxy-2-propyl acetate]
